This is an account of results in patent publication US7745459B2, “Quinolizinone compound and use thereof as HIV integrase inhibitor” (Japan Tobacco Inc., priority 2004, dated 2010).

Some results are limits rather than exact numbers.

The test concerns the target T1, HIV integrase (Human immunodeficiency virus type 1 group M subtype B, UniProt P12497, F1332H).
T1 construct: HIV integrase full length gene; made in house; host or cells: Escherichia coli BL21 (DE3)
Briefly: Determination of enzyme (HIV integrase) inhibitory activity. The class given is biochemical. As to conditions: recombinant integrase protein (phenylalanine at codon 185 substituted by histidine); donor/target DNA, absorbance at 450 nm; read-out: Anti-integrase activity (IC50 value). The text has this: The following explains evaluation methods of the HIV integrase inhibitory activity of the compound of the present invention.
HIV integrase full length gene (J. Virol., 67, 425-437 (1993)) in which phenylalanine at codon 185 was substituted by histidine, was inserted between the restriction enzyme NdeI and XhoI sites of plasmid pET21a(+) (Novagen), whereby an integrase expression vector pET21a-INH was constructed.
Escherichia coli recombinant BL21 (DE3) transformed with plasmid pET21a-INH obtained in (i) was shake cultured at 37° C. in a liquid medium containing ampicillin. When the culture reached the logarithmic growth phase, isopropyl-β-D-thiogalactopyranoside was added to promote expression of integrase gene. The culture was continued for 3 hr to promote accumulation of the integrase protein. The recombinant E. coli was collected in pellets by centrifugal separation and preserved at −80° C.
The E. coli was suspended in Lysis buffer (20 mM HEPES (pH 7.5), 5 mM DTT, 10 mM CHAPS, 10% glycerol) containing 1 M sodium chloride and subjected to repeat pressurization and depressurization for rupture, and centrifugal separation at 4° C., 40,000×g, 60 min to recover a water-soluble fraction (supernatant). This was diluted 10-fold with Lysis buffer free of sodium chloride, mixed with SP-Sepharose (Pharmacia Corporation) and stirred at 4° C. for 60 min to allow adsorption of integrase protein to the resin. The resin was washed with Lysis buffer containing 100 mM sodium chloride and the integrase protein was eluted with Lysis buffer containing 1 M sodium chloride.
The eluted integrase protein solution was subjected to a Superdex 75 (Pharmacia Corporation) column for gel filtration. The protein was eluted with Lysis buffer containing 1 M sodium chloride.
The obtained fractions of the integrase protein were collected and preserved at −80° C.
The following DNA synthesized by Greiner was dissolved in TE buffer (10 mM Tris-hydrochloric acid (pH 8.0), 1 mM EDTA) and mixed with donor DNA, target DNA, and each complementary strand (+ and − strands) to 1 μM. The mixture was heated at 95° C. for 5 min, 80° C. for 10 min, 70° C. for 10 min, 60° C. for 10 min, 50° C. for 10 min and 40° C. for 10 min and kept at 25° C. to give a double stranded DNA, which was used for the test.
The donor DNA was diluted with TE buffer to 10 nM, of which 50 μl was added to each well of streptavidin-coated microtiter plate (Roche) and allowed to adsorb at 37° C. for 60 min. The plate was washed with phosphate buffer (Dulbecco's PBS, Sanko Junyaku Co., Ltd.) containing 0.1% Tween 20 and phosphate buffer. Then, a reaction mixture (70 μl) having the following composition, a test substance (10 μl) diluted with the reaction mixture and 100 μg/ml integrase protein (10 μl) were added to each well and reacted at 37° C. for 60 min. Composition of the reaction mixture: 30 mM MOPS (3-morpholinopropanesulfonic acid), 5 mM magnesium chloride, 3 mM DTT (dithiothreitol), 0.1 mg/ml BSA (bovine serum albumin), 5% glycerol, 10% DMSO (dimethyl sulfoxide), 0.01% Tween 20.
Then, 50 nM target DNA (10 μl) was added, and the mixture was reacted at 37° C. for 10 min and washed with phosphate buffer containing 0.1% Tween 20 to stop the reaction.
Then, 100 mU/ml peroxidase labeled anti-digoxigenin antibody solution (Roche, 100 μl) was added, and the mixture was reacted at 37° C. for 60 min, followed by washing with phosphate buffer containing 0.1% Tween 20.
A peroxidase color solution (Bio Rad, 100 μl) was added and allowed to react at room temperature for 4 min. The color reaction was stopped by adding 1N sulfuric acid (100 μl). The absorbance at 450 nm was measured. […]
In the case of `CC(C)C(CO)c1cc(C(=O)O)c(=O)n2cc(Cc3cccc(Cl)c3F)ccc12` (stereo not shown) [Example 15, 7-(3-chloro-2-fluorobenzyl)-1-(1-hydroxymethyl-2-methylpropyl)-4-oxo-4H-quinolizine-3-carboxylic acid], the IC50 was in the range of 10 to 100 nM. Under `COc1cc2c([C@H](CO)C(C)C)cc(C(=O)O)c(=O)n2cc1Cc1cccc(Cl)c1F` [Example 10, 7-(3-chloro-2-fluorobenzyl)-1-((R)-1-hydroxymethyl-2-methylpropyl)-8-methoxy-4-oxo-4H-quinolizine-3-carboxylic acid] stands less than 10 nM.

For the compound `CC(C)(C)[C@@H](CO)c1cc(C(=O)O)c(=O)n2cc(Cc3cccc(Cl)c3F)ccc12` [Example 16, 7-(3-chloro-2-fluorobenzyl)-1-((R)-1-hydroxymethyl-2,2-dimethylpropyl)-4-oxo-4H-quinolizine-3-carboxylic acid], the IC50 is less than 10 nM. Under `CC(=O)Nc1cc(C(=O)O)c(=O)n2cc(Cc3cccc(Cl)c3F)ccc12` [Example 61, 1-acetylamino-7-(3-chloro-2-fluorobenzyl)-4-oxo-4H-quinolizine-3-carboxylic acid] stands 100 to 1000 nM; under `CCOC(=O)NCc1cc(C(=O)O)c(=O)n2cc(Cc3cccc(Cl)c3F)ccc12` [Example 46, 7-(3-chloro-2-fluorobenzyl)-1-(ethoxycarbonylaminomethyl)-4-oxo-4H-quinolizine-3-carboxylic acid], 10 to 100 nM; under `O=C(O)Cc1cc(C(=O)O)c(=O)n2cc(Cc3cccc(Cl)c3F)ccc12` [Example 36, 1-carboxymethyl-7-(3-chloro-2-fluorobenzyl)-4-oxo-4H-quinolizine-3-carboxylic acid], 10 to 100 nM. Under `CC(=O)NCc1cc(C(=O)O)c(=O)n2cc(Cc3cccc(Cl)c3F)ccc12` [Example 22, 1-(acetylaminomethyl)-7-(3-chloro-2-fluorobenzyl)-4-oxo-4H-quinolizine-3-carboxylic acid] stands 10 to 100 nM; under `CC(C)(C)[C@@H](CO)c1cc(C(=O)O)c(=O)n2cc(Cc3cccc(Cl)c3Cl)ccc12` [Example 64, 7-(2,3-dichlorobenzyl)-1-((R)-1-hydroxymethyl-2,2-dimethylpropyl)-4-oxo-4H-quinolizine-3-carboxylic acid], less than 10 nM.

For `O=C(O)c1ccc2ccc(Cc3ccccc3)cn2c1=O` [Example 11, 7-benzyl-4-oxo-4H-quinolizine-3-carboxylic acid], the IC50 was 1000 to 10000 nM. Under `COC(C)(C)C(=O)NCc1cc(C(=O)O)c(=O)n2cc(Cc3cccc(Cl)c3F)ccc12` [Example 56, 7-(3-chloro-2-fluorobenzyl)-1-[(2-methoxy-2-methylpropionylamino)methyl]-4-oxo-4H-quinolizine-3-carboxylic acid] stands 100 to 1000 nM.

As usually defined, the IC50 is the concentration that inhibits the measured activity by half.
